Experiments:
[1] = system: UGT isozymes in human hepatocytes; details: compound 3138, 15-20 minutes at 37° C.
[2] = system: endogenously expressed UGT isozymes in mammalian microsomes; assay: Utilization of compound 3138 by mammalian tissue microsomes; type: biochemical; details: 50 μM compound 3138, 0.1 mg/mL mammalian microsomes, 15 minutes at 37° C.
Method: (§1) The ability of endogenously expressed UGT isozymes to utilize compounds 3138 and 3165 as substrates was determined in a similar manner to the assays with recombinant microsomes (Example 1). […] Tissue microsomes were obtained from Xenotech LLC or BD Gentest. Addition of P450-Glo LDR plus cysteine and data analysis was performed in the same manner as for the recombinant Supersome panel screen (Example 1 above).

UGT 2B7 = UGT 2B7 (Homo sapiens, UniProt P16662); assay: Recombinant UGT panel, substrate utilization; type: biochemical; design: purchased BD Gentest; host or cells: insect cells (microsomes); details: 2 hour incubation at 37° C., recombinant Supersomes, background corrected
Method: (§2) During this incubation, the cysteine reacts with the cyanobenzathiozole substrate to yield a D-luciferin derivative. […] Therefore, activity of the UGT enzyme can be measured by analyzing the difference (lower or no output) in relative light units (RLU) of a sample in which glucuronidation occurs compared to a sample that was run under the same conditions with no added UDPGA cofactor.
(§3) In this example, a series of 12 recombinant UGTs expressed in insect microsomes (Supersomes™, BD Gentest™), as well as the control microsomes not expressing the UGT enzyme, were incubated with compound 3138, compound 3478, or compound 3165 as substrates, with or without the UDPGA co-factor.
(§4) After addition of a luciferin detection reagent (LDR) containing D-cysteine, both the substrate and the product were converted to D-luciferins (compound 3478 is already a luciferin derivative before addition of the LDR).
Reactions were assembled in a white, 96-well plate. Each well contained 20 μL of reaction mixture comprised of 100 mM TES, pH 7.5, 16 mM MgCl2, 50 μg/mL alamethicin (Sigma), 60 μM compound 3138 or compound 3478, and 0.4 mg/mL of control or recombinant UGT membranes. The reactions were initiated by addition of 20 μL of water or 8 mM triammonium UDPGA (Sigma) to each well. […] After the incubation was completed, the plate was read on a Veritas™ luminometer (Turner BioSystems, Inc.; Sunnyvale, Calif.). […]

UGT 1A10 = biological target: T1, UGT 1A10 (Homo sapiens, UniProt Q9HAW8); assay: Recombinant UGT panel, substrate utilization; type: biochemical; details: 2 hour incubation at 37° C., recombinant Supersomes, background corrected
T1 construct: purchased BD Gentest; host or cells: insect cells (microsomes)
Method: as §2, §3, §4
(§5) Reactions were assembled in a white, 96-well plate. Each well contained 20 μL of reaction mixture comprised of 100 mM TES, pH 7.5, 16 mM MgCl2, 50 μg/mL alamethicin (Sigma), 60 μM compound 3138 or compound 3478, and 0.4 mg/mL of control or recombinant UGT membranes. The reactions were initiated by addition of 20 μL of water or 8 mM triammonium UDPGA (Sigma) to each well. The plate was mixed, sealed, and incubated in a 37° C. water bath for 2 hours. After the incubation, 40 μL P450-Glo LDR (Promega) with 20 mM D-cysteine-HCl.H2O (Sigma) was added to each well, the plate was mixed and allowed to incubate at room temperature for 20 minutes. After the incubation was completed, the plate was read on a Veritas™ luminometer (Turner BioSystems, Inc.; Sunnyvale, Calif.).
(§6) For each isozyme, the bioluminescence from the replicates containing UDPGA were subtracted from the average bioluminescence of the replicates without UDPGA. The average Δ RLU value obtained and the standard deviation of the replicates were then divided by the average bioluminescence for samples without UDPGA to obtain the % utilization for each isozyme. The % utilization obtained from the control microsomes was then subtracted from each isozyme to give the background corrected utilization data for those isozymes.

UGT 1A6 = biological target: T2, UGT 1A6 (Homo sapiens, UniProt P19224); assay: Recombinant UGT panel, substrate utilization; type: biochemical; details: 2 hour incubation at 37° C., recombinant Supersomes
T2 construct: purchased BD Gentest; host or cells: insect cells (microsomes)
Method: as §2, §3, §4, §5, §6

UGT 1A7 = biological target: T3, UGT 1A7 (Homo sapiens, UniProt Q9HAW7); assay: Recombinant UGT panel, substrate utilization; type: biochemical; details: 2 hour incubation at 37° C., recombinant Supersomes
T3 construct: purchased BD Gentest; host or cells: insect cells (microsomes)
Method: as §2, §3, §4, §5, §6

UGT 1A9 = biological target: T4, UGT 1A9 (Homo sapiens, UniProt O60656); assay: Recombinant UGT panel, substrate utilization; type: biochemical; details: 2 hour incubation at 37° C., recombinant Supersomes, background corrected
T4 construct: purchased BD Gentest; host or cells: insect cells (microsomes)
T4 sequence (O60656 26-530): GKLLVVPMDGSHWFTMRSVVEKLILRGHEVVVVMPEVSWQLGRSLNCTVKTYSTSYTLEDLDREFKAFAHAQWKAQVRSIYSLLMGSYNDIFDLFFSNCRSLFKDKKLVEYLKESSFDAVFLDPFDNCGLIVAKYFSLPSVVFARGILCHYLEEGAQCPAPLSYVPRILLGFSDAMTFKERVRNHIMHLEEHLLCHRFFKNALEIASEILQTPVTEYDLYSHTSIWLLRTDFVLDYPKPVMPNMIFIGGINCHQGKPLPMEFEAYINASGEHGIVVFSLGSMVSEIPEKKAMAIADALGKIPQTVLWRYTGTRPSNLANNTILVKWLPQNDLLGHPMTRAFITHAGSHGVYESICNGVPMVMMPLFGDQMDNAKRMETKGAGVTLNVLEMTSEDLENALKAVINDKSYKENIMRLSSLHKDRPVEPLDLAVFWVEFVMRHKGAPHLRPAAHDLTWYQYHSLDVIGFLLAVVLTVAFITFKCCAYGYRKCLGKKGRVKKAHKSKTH
Method: as §2, §3, §4, §5, §6

UGT 1A1 = biological target: T5, UGT 1A1 (Homo sapiens, UniProt P22309); assay: Recombinant UGT panel, substrate utilization; type: biochemical; details: 2 hour incubation at 37° C., recombinant Supersomes, background corrected
T5 construct: purchased BD Gentest; host or cells: insect cells (microsomes)
T5 sequence (P22309 26-533): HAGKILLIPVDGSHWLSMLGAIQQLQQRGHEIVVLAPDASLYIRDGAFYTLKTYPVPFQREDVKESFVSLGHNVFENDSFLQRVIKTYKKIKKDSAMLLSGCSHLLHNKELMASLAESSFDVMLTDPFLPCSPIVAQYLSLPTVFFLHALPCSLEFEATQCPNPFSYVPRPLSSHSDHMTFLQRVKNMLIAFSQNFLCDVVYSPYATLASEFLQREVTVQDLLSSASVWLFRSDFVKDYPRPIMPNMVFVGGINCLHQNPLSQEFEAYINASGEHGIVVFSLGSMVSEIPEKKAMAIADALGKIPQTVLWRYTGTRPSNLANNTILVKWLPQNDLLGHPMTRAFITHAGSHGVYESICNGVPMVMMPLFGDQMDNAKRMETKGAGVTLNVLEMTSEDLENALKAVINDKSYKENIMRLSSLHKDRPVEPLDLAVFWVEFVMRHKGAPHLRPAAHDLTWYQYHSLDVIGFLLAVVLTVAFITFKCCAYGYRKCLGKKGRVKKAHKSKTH
Method: as §2, §3, §4, §5, §6

UGT 2B4 = biological target: T6, UGT 2B4 (Homo sapiens, UniProt P06133); assay: Recombinant UGT panel, substrate utilization; type: biochemical; details: 2 hour incubation at 37° C., recombinant Supersomes
T6 construct: purchased BD Gentest; host or cells: insect cells (microsomes)
Method: as §2, §3, §4, §5, §6

UGT 1A3 = biological target: T7, UGT 1A3 (Homo sapiens, UniProt P35503); assay: Recombinant UGT panel, substrate utilization; type: biochemical; details: 2 hour incubation at 37° C., recombinant Supersomes
T7 construct: purchased BD Gentest; host or cells: insect cells (microsomes)
Method: as §2, §3, §4, §5, §6

UGT 2B15 = biological target: T8, UGT 2B15 (Homo sapiens, UniProt P54855); assay: Recombinant UGT panel, substrate utilization; type: biochemical; details: 2 hour incubation at 37° C., recombinant Supersomes
T8 construct: purchased BD Gentest; host or cells: insect cells (microsomes)
Method: as §2, §3, §4, §5, §6

UGT 1A4 = biological target: T9, UGT 1A4 (Homo sapiens, UniProt P22310); assay: Recombinant UGT panel, substrate utilization; type: biochemical; details: 2 hour incubation at 37° C., recombinant Supersomes
T9 construct: purchased BD Gentest; host or cells: insect cells (microsomes)
T9 sequence (P22310 29-534): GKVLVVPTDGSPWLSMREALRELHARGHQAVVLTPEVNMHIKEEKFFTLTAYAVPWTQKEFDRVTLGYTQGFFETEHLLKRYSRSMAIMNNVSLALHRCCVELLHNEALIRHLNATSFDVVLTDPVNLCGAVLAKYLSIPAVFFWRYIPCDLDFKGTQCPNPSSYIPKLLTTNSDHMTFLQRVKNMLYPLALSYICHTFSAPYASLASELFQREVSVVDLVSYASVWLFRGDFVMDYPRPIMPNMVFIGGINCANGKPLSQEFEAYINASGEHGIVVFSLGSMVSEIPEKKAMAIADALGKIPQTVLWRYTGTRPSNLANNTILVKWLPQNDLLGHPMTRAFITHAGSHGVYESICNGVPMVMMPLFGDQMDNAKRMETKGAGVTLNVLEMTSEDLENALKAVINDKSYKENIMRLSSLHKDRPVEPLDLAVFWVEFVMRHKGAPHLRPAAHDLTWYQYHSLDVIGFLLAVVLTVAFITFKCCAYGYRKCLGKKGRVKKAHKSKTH
Method: as §2, §3, §4, §5, §6

UGT 2B17 = biological target: T10, UGT 2B17 (Homo sapiens, UniProt O75795); assay: Recombinant UGT panel, substrate utilization; type: biochemical; details: 2 hour incubation at 37° C., recombinant Supersomes
T10 construct: purchased BD Gentest; host or cells: insect cells (microsomes)
Method: as §2, §3, §4, §5, §6

UGT 1A8 = biological target: T11, UGT 1A8 (Homo sapiens, UniProt Q9HAW9); assay: Recombinant UGT panel, substrate utilization; type: biochemical; details: 2 hour incubation at 37° C., recombinant Supersomes, background corrected
T11 construct: purchased BD Gentest; host or cells: insect cells (microsomes)
Method: as §2, §3, §4, §5, §6

rat liver microsomes = assay: Utilization of compound 3165 by rat liver microsomes; type: biochemical; details: 50 μM compound 3165, 0.2 mg/mL microsomes, 2 hours at 37° C.
Method: as §1

mouse liver microsomes = assay: Utilization of compound 3165 by mouse liver microsomes; type: biochemical; details: 50 μM compound 3165, 0.2 mg/mL microsomes, 2 hours at 37° C.
Method: as §1

human liver microsomes = assay: Utilization of compound 3165 by human microsomes; type: biochemical; details: 50 μM compound 3165, 0.2 mg/mL microsomes, 2 hours at 37° C.
Method: as §1

T8 sequence (P54855 24-530): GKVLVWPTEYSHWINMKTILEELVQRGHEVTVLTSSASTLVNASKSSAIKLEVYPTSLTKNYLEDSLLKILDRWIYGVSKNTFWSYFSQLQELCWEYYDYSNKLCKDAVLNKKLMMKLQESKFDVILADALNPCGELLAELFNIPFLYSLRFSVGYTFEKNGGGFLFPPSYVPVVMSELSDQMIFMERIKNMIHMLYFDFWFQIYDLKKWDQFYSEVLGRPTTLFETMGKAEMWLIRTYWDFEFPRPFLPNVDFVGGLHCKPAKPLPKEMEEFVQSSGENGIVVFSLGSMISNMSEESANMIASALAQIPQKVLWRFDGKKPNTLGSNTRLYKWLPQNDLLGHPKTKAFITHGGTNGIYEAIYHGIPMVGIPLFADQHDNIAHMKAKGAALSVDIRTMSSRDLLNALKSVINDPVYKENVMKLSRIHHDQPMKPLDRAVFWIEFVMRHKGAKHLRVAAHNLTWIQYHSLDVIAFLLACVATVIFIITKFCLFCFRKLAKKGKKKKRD
T2 sequence (P19224 27-532): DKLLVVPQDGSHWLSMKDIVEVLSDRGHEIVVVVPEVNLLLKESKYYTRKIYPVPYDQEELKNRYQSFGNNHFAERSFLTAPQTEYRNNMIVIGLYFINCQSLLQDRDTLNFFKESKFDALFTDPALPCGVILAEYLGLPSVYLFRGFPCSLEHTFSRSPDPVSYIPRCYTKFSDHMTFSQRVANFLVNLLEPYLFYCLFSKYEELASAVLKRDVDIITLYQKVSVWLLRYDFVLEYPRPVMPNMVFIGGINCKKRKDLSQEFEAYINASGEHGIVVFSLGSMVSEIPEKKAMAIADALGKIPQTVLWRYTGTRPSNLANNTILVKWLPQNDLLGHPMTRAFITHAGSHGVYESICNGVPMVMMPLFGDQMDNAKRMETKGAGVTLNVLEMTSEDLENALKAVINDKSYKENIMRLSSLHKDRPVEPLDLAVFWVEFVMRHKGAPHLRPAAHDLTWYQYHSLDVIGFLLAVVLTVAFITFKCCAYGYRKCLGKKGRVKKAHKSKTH
T3 sequence (Q9HAW7 26-530): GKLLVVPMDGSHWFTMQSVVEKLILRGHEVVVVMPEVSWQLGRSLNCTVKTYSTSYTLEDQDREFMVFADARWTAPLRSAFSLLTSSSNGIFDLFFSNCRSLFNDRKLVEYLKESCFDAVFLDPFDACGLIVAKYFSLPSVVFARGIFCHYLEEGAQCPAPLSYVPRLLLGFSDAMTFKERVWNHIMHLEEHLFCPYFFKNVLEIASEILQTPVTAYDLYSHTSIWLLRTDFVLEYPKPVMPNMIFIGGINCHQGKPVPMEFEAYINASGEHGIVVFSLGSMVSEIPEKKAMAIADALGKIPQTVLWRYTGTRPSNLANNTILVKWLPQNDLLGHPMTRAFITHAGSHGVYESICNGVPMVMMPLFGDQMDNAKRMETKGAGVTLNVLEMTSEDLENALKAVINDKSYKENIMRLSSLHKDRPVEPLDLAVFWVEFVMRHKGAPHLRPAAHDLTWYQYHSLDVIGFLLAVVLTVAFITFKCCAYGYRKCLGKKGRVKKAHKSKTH
T6 sequence (P06133 24-528): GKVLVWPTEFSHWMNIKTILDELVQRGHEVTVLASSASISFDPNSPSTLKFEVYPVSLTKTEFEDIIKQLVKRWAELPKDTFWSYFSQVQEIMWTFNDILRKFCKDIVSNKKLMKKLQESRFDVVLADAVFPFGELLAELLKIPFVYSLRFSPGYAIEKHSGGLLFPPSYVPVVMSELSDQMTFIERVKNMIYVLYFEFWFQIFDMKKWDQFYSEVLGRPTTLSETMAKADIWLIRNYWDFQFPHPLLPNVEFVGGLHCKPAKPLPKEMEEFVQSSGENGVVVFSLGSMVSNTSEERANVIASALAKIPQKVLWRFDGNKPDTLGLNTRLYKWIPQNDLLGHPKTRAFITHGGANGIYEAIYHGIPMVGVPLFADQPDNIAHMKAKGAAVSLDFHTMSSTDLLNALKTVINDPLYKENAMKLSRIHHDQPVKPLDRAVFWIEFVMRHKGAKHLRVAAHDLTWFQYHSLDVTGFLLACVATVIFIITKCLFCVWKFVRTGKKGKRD
Chain of UGT 2B7 (P16662 24-529): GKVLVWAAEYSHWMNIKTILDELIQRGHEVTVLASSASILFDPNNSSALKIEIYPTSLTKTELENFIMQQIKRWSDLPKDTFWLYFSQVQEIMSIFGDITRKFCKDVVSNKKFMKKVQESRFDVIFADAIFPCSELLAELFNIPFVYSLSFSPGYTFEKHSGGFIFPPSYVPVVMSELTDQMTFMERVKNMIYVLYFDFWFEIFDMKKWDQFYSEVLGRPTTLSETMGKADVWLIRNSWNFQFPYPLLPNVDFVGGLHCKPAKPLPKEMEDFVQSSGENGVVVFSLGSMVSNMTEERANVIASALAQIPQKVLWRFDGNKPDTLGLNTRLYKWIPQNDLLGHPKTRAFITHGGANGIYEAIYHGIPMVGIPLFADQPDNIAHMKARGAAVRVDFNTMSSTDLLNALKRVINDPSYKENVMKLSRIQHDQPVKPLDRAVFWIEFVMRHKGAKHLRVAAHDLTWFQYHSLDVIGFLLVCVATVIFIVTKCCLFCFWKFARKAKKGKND
T7 sequence (P35503 29-534): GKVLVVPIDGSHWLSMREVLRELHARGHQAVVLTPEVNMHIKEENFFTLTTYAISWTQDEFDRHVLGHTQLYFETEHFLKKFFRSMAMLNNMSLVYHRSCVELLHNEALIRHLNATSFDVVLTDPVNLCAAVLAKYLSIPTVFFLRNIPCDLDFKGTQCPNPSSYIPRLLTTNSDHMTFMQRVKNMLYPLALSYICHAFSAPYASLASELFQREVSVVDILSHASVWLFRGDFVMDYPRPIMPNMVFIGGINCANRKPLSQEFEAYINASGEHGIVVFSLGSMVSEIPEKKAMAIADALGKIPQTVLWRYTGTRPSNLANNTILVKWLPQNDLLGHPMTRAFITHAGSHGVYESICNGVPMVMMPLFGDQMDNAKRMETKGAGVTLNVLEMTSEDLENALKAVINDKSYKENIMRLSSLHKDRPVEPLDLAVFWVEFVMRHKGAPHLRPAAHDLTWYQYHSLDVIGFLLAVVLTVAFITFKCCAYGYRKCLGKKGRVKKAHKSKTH
T11 sequence (Q9HAW9 26-530): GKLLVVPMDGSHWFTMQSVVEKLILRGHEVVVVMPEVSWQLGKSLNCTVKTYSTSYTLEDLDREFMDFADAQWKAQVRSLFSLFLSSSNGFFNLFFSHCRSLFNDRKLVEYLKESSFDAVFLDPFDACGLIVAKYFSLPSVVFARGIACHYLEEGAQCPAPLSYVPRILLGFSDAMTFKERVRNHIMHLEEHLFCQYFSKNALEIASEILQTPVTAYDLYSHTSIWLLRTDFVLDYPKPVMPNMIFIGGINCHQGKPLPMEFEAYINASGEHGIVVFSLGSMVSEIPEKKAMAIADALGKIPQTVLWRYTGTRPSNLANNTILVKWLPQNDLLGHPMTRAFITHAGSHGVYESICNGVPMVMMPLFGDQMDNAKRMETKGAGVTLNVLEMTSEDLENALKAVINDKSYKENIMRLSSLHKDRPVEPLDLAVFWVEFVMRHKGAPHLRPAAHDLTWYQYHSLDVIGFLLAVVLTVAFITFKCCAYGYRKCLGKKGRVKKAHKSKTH
T10 sequence (O75795 24-530): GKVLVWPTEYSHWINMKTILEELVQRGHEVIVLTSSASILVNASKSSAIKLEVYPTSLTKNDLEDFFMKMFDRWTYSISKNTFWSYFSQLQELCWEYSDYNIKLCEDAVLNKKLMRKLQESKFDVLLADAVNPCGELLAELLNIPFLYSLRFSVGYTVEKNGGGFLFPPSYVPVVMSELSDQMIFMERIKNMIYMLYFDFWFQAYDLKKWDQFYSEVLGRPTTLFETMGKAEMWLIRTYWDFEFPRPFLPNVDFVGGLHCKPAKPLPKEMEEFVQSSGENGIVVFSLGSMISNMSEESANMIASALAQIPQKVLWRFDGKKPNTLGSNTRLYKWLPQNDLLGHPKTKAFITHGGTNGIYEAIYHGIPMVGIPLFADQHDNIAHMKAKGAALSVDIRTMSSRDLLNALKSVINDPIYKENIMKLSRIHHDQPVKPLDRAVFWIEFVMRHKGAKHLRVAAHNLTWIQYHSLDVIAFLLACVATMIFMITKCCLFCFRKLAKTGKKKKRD
T1 sequence (Q9HAW8 26-530): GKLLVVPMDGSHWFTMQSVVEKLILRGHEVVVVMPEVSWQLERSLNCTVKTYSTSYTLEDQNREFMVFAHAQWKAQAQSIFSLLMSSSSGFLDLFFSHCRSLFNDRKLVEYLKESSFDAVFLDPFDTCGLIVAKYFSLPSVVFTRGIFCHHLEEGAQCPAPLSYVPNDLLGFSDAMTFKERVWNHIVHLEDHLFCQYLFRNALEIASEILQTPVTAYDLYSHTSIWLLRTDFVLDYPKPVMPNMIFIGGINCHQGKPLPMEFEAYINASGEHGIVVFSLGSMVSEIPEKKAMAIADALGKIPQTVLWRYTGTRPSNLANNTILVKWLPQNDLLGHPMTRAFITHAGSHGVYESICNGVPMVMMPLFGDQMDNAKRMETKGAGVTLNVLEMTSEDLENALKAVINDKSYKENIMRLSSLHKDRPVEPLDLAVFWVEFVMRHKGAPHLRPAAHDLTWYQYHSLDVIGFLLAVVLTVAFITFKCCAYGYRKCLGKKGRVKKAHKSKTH

| SMILES | conversion of substrate by intact hepatocytes [1] | utilization by tissue microsomes compared with control 1A1 Supersomes [2] | % utilization of substrate by UGT 2B7 (UGT 2B7) | % utilization of substrate by UGT 1A10 (UGT 1A10) | utilization of substrate by UGT 1A6 (UGT 1A6) | utilization of substrate by UGT 1A7 (UGT 1A7) | % utilization of substrate by UGT 1A9 (UGT 1A9) | % utilization of substrate by UGT 1A1 (UGT 1A1) | utilization of substrate by UGT 2B4 (UGT 2B4) | utilization of substrate by UGT 1A3 (UGT 1A3) | utilization of substrate by UGT 2B15 (UGT 2B15) | utilization of substrate by UGT 1A4 (UGT 1A4) | utilization of substrate by UGT 2B17 (UGT 2B17) | % utilization of substrate by UGT 1A8 (UGT 1A8) | utilization (activity) with rat liver microsomes (rat liver microsomes) | utilization (activity) with mouse liver microsomes (mouse liver microsomes) | utilization (activity) with human liver microsomes versus human renal or intestinal microsomes (human liver microsomes) |
| --- | --- | --- | --- | --- | --- | --- | --- | --- | --- | --- | --- | --- | --- | --- | --- | --- | --- |
| Cc1cc(O)cc2sc(C#N)nc12 [Compound 3138] | Conversion of the PBI 3138 was seen | utilized much more of compound 3138 than the control 1A1 Supersomes | over 50% | over 50% | detectable levels of utilization above background | detectable levels of utilization above background | over 50% | over 50% | did not utilize either compound 3138 or 3478 to an appreciable extent | detectable levels of utilization above background | detectable levels of utilization above background | did not utilize either compound 3138 or 3478 to an appreciable extent | detectable levels of utilization above background | over 50% |  |  |  |
| N#Cc1nc2ccc(NCc3cccc(N)c3)cc2s1 [Compound 3165] |  |  |  |  |  |  | to a lesser extent |  |  |  |  | only utilized by UGT 1A4 |  |  | Activity was also seen | Activity was also seen | Activity was much higher for human liver microsomes |

Reference: US8592172B2, “Bioluminescent assays using cyanobenzothiazole compounds” (Promega Corporation, priority 2010, dated 2013)
